# Test results published in ChEMBL document CHEMBL6074711, “Design, Synthesis, and Activity Evaluation of C-23-Modified 5-O-Mycaminosyltylonolide Derivatives” (ACS Med Chem Lett, 2024).
# Columns and labels:
# Assay type in all cases: functional
# Staphylococcus aureus [1] = assay: Antibacterial activity against Staphylococcus aureus ATCC25923 incubated for 16 to 20 hrs by broth microdilution method; conditions: time 16-20 hrs
# Escherichia coli [2] = assay: Antibacterial activity against Escherichia coli ATCC25922 incubated for 16 to 20 hrs by broth microdilution method; conditions: time 16-20 hrs
# Enterococcus faecalis = assay: Antibacterial activity against Enterococcus faecalis ATCC29212 incubated for 16 to 20 hrs by broth microdilution method; conditions: time 16-20 hrs
# [3] = system: Stenotrophomonas maltophilia; assay: Antibacterial activity against Stenotrophomonas maltophilia ATCC17808 incubated for 16 to 20 hrs by broth microdilution method; conditions: time 16-20 hrs
# Escherichia coli [4] = assay: Antibacterial activity against drug-resistant Escherichia coli clinical isolate 1322 incubated for 16 to 20 hrs by broth microdilution method; conditions: time 16-20 hrs
# Escherichia coli [5] = assay: Antibacterial activity against drug-resistant Escherichia coli clinical isolate 1333 incubated for 16 to 20 hrs by broth microdilution method; conditions: time 16-20 hrs
# Staphylococcus aureus [6] = assay: Antibacterial activity against drug-resistant Staphylococcus aureus clinical isolate M20 incubated for 16 to 20 hrs by broth microdilution method; conditions: time 16-20 hrs
# Staphylococcus aureus [7] = assay: Antibacterial activity against Staphylococcus aureus ATCC25923 under 10^5 CFU/ml of bacterial inoculum culture by absorbance based assay
# Staphylococcus aureus [8] = assay: Antibacterial activity against Staphylococcus aureus ATCC25923 under 10^6 CFU/ml of bacterial inoculum culture by absorbance based assay
# Staphylococcus aureus [9] = assay: Antibacterial activity against Staphylococcus aureus ATCC25923 under 10^7 CFU/ml of bacterial inoculum culture by absorbance based assay
# Staphylococcus aureus [10] = assay: Antibacterial activity against Staphylococcus aureus ATCC25923 under 10^4 CFU/ml of bacterial inoculum culture by absorbance based assay
MIC (Staphylococcus aureus [1]),MIC (Escherichia coli [2]),MIC (Enterococcus faecalis),MIC [3],Compound,MIC (Escherichia coli [4]),MIC (Escherichia coli [5]),MIC (Staphylococcus aureus [6]),MIC (Staphylococcus aureus [7]),MIC (Staphylococcus aureus [8]),MIC (Staphylococcus aureus [9]),MIC (Staphylococcus aureus [10])
1 µg/mL,2 µg/mL,2 µg/mL,2 µg/mL,CC[C@H]1OC(=O)C[C@@H](O)[C@H](C)[C@@H](O[C@@H]2O[C@H](C)[C@@H](O)[C@H](N(C)C)[C@H]2O)[C@@H](CCNCc2cn(-c3cnc4ccccc4c3)nn2)C[C@@H](C)C(=O)/C=C/C(C)=C/[C@@H]1CNCc1ccc(Br)cc1,–,–,–,–,–,–,–
2 µg/mL,1 µg/mL,2 µg/mL,1 µg/mL,CC[C@H]1OC(=O)C[C@@H](O)[C@H](C)[C@@H](O[C@@H]2O[C@H](C)[C@@H](O)[C@H](N(C)C)[C@H]2O)[C@@H](CCNCc2cn(-c3cnc4ccccc4c3)nn2)C[C@@H](C)C(=O)/C=C/C(C)=C/[C@@H]1CN(CC)Cc1ccccc1,–,–,–,–,–,–,–
2 µg/mL,8 µg/mL,4 µg/mL,2 µg/mL,CC[C@H]1OC(=O)C[C@@H](O)[C@H](C)[C@@H](O[C@@H]2O[C@H](C)[C@@H](O)[C@H](N(C)C)[C@H]2O)[C@@H](CCN(C)Cc2cn(-c3cnc4ccccc4c3)nn2)C[C@@H](C)C(=O)/C=C/C(C)=C/[C@@H]1CN(CC)Cc1ccccc1,–,–,–,–,–,–,–
1 µg/mL,1 µg/mL,1 µg/mL,1 µg/mL,CC[C@H]1OC(=O)C[C@@H](O)[C@H](C)[C@@H](O[C@@H]2O[C@H](C)[C@@H](O)[C@H](N(C)C)[C@H]2O)[C@@H](CCN(C)Cc2cn(-c3cnc4ccccc4c3)nn2)C[C@@H](C)C(=O)/C=C/C(C)=C/[C@@H]1CNCc1cc(F)cc(F)c1,–,–,–,–,–,–,–
1 µg/mL,2 µg/mL,2 µg/mL,1 µg/mL,CC[C@H]1OC(=O)C[C@@H](O)[C@H](C)[C@@H](O[C@@H]2O[C@H](C)[C@@H](O)[C@H](N(C)C)[C@H]2O)[C@@H](CCNCc2cn(-c3cnc4ccccc4c3)nn2)C[C@@H](C)C(=O)/C=C/C(C)=C/[C@@H]1CNCc1ccc(Cl)cc1,–,–,–,–,–,–,–
2 µg/mL,4 µg/mL,8 µg/mL,4 µg/mL,CC[C@H]1OC(=O)C[C@@H](O)[C@H](C)[C@@H](O[C@@H]2O[C@H](C)[C@@H](O)[C@H](N(C)C)[C@H]2O)[C@@H](CCN(C)Cc2cn(-c3cnc4ccccc4c3)nn2)C[C@@H](C)C(=O)/C=C/C(C)=C/[C@@H]1CNc1ccc(I)cc1,–,–,–,–,–,–,–
2 µg/mL,1 µg/mL,2 µg/mL,1 µg/mL,CC[C@H]1OC(=O)C[C@@H](O)[C@H](C)[C@@H](O[C@@H]2O[C@H](C)[C@@H](O)[C@H](N(C)C)[C@H]2O)[C@@H](CCNCc2cn(-c3cnc4ccccc4c3)nn2)C[C@@H](C)C(=O)/C=C/C(C)=C/[C@@H]1CNc1ccc(Br)cc1,–,–,–,–,–,–,–
2 µg/mL,1 µg/mL,2 µg/mL,4 µg/mL,CC[C@H]1OC(=O)C[C@@H](O)[C@H](C)[C@@H](O[C@@H]2O[C@H](C)[C@@H](O)[C@H](N(C)C)[C@H]2O)[C@@H](CCN(C)Cc2cn(-c3cnc4ccccc4c3)nn2)C[C@@H](C)C(=O)/C=C/C(C)=C/[C@@H]1CNCc1ccc(Cl)cc1,–,–,–,–,–,–,–
2 µg/mL,8 µg/mL,8 µg/mL,4 µg/mL,CC[C@H]1OC(=O)C[C@@H](O)[C@H](C)[C@@H](O[C@@H]2O[C@H](C)[C@@H](O)[C@H](N(C)C)[C@H]2O)[C@@H](CCN(C)Cc2cn(-c3cnc4ccccc4c3)nn2)C[C@@H](C)C(=O)/C=C/C(C)=C/[C@@H]1CNCc1ccc(F)cc1,–,–,–,–,–,–,–
4 µg/mL,8 µg/mL,8 µg/mL,4 µg/mL,CC[C@H]1OC(=O)C[C@@H](O)[C@H](C)[C@@H](O[C@@H]2O[C@H](C)[C@@H](O)[C@H](N(C)C)[C@H]2O)[C@@H](CCN(C)Cc2cn(-c3cnc4ccccc4c3)nn2)C[C@@H](C)C(=O)/C=C/C(C)=C/[C@@H]1CNc1ccc2ccccc2c1,–,–,–,–,–,–,–
2 µg/mL,2 µg/mL,2 µg/mL,2 µg/mL,CCc1ccc(NC[C@H]2/C=C(C)/C=C/C(=O)[C@H](C)C[C@H](CCN(C)Cc3cn(-c4cnc5ccccc5c4)nn3)[C@H](O[C@@H]3O[C@H](C)[C@@H](O)[C@H](N(C)C)[C@H]3O)[C@@H](C)[C@H](O)CC(=O)O[C@@H]2CC)cc1,–,–,–,–,–,–,–
0.5 µg/mL,2 µg/mL,2 µg/mL,2 µg/mL,CC[C@H]1OC(=O)C[C@@H](O)[C@H](C)[C@@H](O[C@@H]2O[C@H](C)[C@@H](O)[C@H](N(C)C)[C@H]2O)[C@@H](CCNCc2cn(-c3cnc4ccccc4c3)nn2)C[C@@H](C)C(=O)/C=C/C(C)=C/[C@@H]1CN(C)Cc1ccccc1,–,–,–,–,–,–,–
8 µg/mL,16 µg/mL,16 µg/mL,8 µg/mL,CC[C@H]1OC(=O)C[C@@H](O)[C@H](C)[C@@H](O[C@@H]2O[C@H](C)[C@@H](O)[C@H](N(C)C)[C@H]2O)[C@@H](CCN(C)Cc2cn(-c3cnc4ccccc4c3)nn2)C[C@@H](C)C(=O)/C=C/C(C)=C/[C@@H]1CN(Cc1ccccc1)C(C)C,–,–,–,–,–,–,–
2 µg/mL,4 µg/mL,4 µg/mL,4 µg/mL,CC[C@H]1OC(=O)C[C@@H](O)[C@H](C)[C@@H](O[C@@H]2O[C@H](C)[C@@H](O)[C@H](N(C)C)[C@H]2O)[C@@H](CCN(C)Cc2cn(-c3cnc4ccccc4c3)nn2)C[C@@H](C)C(=O)/C=C/C(C)=C/[C@@H]1CNc1ccc(Br)cc1,–,–,–,–,–,–,–
4 µg/mL,4 µg/mL,8 µg/mL,4 µg/mL,CC[C@H]1OC(=O)C[C@@H](O)[C@H](C)[C@@H](O[C@@H]2O[C@H](C)[C@@H](O)[C@H](N(C)C)[C@H]2O)[C@@H](CCN(C)Cc2cn(-c3cnc4ccccc4c3)nn2)C[C@@H](C)C(=O)/C=C/C(C)=C/[C@@H]1CNc1ccc(C)cc1,–,–,–,–,–,–,–
2 µg/mL,1 µg/mL,2 µg/mL,1 µg/mL,CC[C@H]1OC(=O)C[C@@H](O)[C@H](C)[C@@H](O[C@@H]2O[C@H](C)[C@@H](O)[C@H](N(C)C)[C@H]2O)[C@@H](CCNCc2cn(-c3cnc4ccccc4c3)nn2)C[C@@H](C)C(=O)/C=C/C(C)=C/[C@@H]1CNCc1ccccc1,–,–,–,–,–,–,–
2 µg/mL,2 µg/mL,2 µg/mL,8 µg/mL,CC[C@H]1OC(=O)C[C@@H](O)[C@H](C)[C@@H](O[C@@H]2O[C@H](C)[C@@H](O)[C@H](N(C)C)[C@H]2O)[C@@H](CCNCc2cn(-c3cnc4ccccc4c3)nn2)C[C@@H](C)C(=O)/C=C/C(C)=C/[C@@H]1CNc1ccc(C)cc1,–,–,–,–,–,–,–

Compound,MIC (Staphylococcus aureus [1]),MIC (Escherichia coli [2]),MIC (Enterococcus faecalis),MIC [3],MIC (Escherichia coli [4]),MIC (Escherichia coli [5]),MIC (Staphylococcus aureus [6]),MIC (Staphylococcus aureus [7]),MIC (Staphylococcus aureus [8]),MIC (Staphylococcus aureus [9]),MIC (Staphylococcus aureus [10])
CC[C@H]1OC(=O)C[C@@H](O)[C@H](C)[C@@H](O[C@@H]2O[C@H](C)[C@@H](O)[C@H](N(C)C)[C@H]2O)[C@@H](CC=O)C[C@@H](C)C(=O)/C=C/C(C)=C/[C@@H]1CO,0.5 µg/mL,> 32 µg/mL,0.5 µg/mL,> 32 µg/mL,> 32 µg/mL,> 32 µg/mL,1 µg/mL,–,–,–,–
C[C@@H](O)[C@H]1C(=O)N2C(C(=O)O)=C(S[C@@H]3CN[C@H](C(=O)N(C)C)C3)[C@H](C)[C@H]12 [MEROPENEM],0.063 µg/mL,0.125 µg/mL,0.063 µg/mL,0.125 µg/mL,–,–,–,0.5 µg/mL,1 µg/mL,2 µg/mL,0.25 µg/mL
